Data from patent US12391679B2, “Benzamide-substituted bicyclic imidazo- and pyrazolo-fused -pyridine, -pyrimide, and -pyridazine compounds for treatment of inflammatory diseases” (ONCO3R Therapeutics BV, priority 2019, dated 2025).

Assays:
SIK2 = target: T1, SIK2 (Homo sapiens, UniProt Q9H0K1); assay: ADP-Glo kinase assay, SIK2; assay type: biochemical
T1 construct: purchased ThermoFisher Scientific PV4792
In short: (§1)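 Luminescent ADP-Glo readout of ADP formed. Enzyme-substrate mix with ATP, reaction 120 min at RT, then 40 min ATP depletion and 30 min detection. Controls were 1% DMSO (negative) and 10 μM staurosporine (positive), both final.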

SIK3 = target: T2, SIK3 (Homo sapiens, UniProt Q9Y2K2); assay: ADP-Glo kinase assay, SIK3; assay type: biochemical
T2 construct: purchased SignalChem S12-11G-100
T2 sequence (Q9Y2K2 59-365 limits assumed): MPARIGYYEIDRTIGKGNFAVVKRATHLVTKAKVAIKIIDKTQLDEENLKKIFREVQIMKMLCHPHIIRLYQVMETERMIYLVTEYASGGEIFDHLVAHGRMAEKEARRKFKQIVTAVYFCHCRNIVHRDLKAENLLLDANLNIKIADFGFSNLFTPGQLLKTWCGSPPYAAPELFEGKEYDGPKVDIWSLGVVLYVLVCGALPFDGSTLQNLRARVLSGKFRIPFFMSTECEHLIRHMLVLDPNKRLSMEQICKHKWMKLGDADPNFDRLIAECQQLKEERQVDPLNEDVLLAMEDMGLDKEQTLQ
In short: as §1

SIK1 = target: T3, SIK1 (Homo sapiens, UniProt P57059); assay: ADP-Glo kinase assay, SIK1; assay type: biochemical
T3 construct: purchased Carna Biosciences 02-131
T3 sequence (P57059 whole entry): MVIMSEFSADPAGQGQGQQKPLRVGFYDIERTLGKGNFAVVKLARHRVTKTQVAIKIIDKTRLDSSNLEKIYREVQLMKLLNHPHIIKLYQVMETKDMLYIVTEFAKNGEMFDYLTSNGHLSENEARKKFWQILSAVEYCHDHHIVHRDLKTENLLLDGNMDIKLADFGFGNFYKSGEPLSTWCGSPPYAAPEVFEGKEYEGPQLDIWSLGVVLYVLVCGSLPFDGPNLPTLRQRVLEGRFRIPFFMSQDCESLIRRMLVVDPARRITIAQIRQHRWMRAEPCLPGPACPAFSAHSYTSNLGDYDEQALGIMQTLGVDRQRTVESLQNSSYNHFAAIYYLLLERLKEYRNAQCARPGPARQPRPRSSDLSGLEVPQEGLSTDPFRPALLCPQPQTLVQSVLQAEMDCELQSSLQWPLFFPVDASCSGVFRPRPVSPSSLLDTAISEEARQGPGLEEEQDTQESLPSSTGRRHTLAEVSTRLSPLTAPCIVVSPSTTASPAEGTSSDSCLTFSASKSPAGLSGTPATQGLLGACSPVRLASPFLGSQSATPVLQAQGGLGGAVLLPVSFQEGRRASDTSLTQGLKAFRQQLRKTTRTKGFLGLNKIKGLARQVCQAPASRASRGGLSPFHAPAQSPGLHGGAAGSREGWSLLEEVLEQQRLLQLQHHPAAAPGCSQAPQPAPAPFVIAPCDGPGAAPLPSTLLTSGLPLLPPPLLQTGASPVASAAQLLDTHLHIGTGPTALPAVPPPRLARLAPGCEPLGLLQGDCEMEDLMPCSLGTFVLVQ
In short: as §1

[1] = tested on: LPS-induced TNFα in monocytes; assay: Monocytes assay: LPS-triggered TNFα (ELISA); assay type: cell-based, human; conditions: Homo sapiens, Monocyte, LPS-triggered TNFα inhibition
Method: This assay evaluates illustrative compounds of the invention for their inhibition of LPS-induced TNFα and LPS triggered IL-10 secretion in monocytes.
PBMCs are isolated from human blood samples (buffycoats). The buffy coat is aseptically transferred into a 50 mL Falcon tube, and diluted 1/2 in PBS. Falcon tubes are filled with 20 mL Lymphoprep™, on top of which 25 mL of the buffy coat is carefully added, tubes are centrifuged for 35 min at 400 g in temperature controlled centrifuge, without brake, at 25° C. PBMCs are aspirated from the white interface layer between sample and Lymphoprep™. PBMCs are washed five times in PBS.
PBMCs are centrifuged at 300×g for 10 min and resuspended at a density of 1.0*10^7 cells/80 μL Miltenyi buffer (PBS, pH 7.4, 1% FBS, 2 mM EDTA).
Starting from this point of the protocol all steps are performed on ice. 20 μL of CD14+ micro-beads are added per 1.0*10^7 cells, the tube is mixed and incubated for 15 min in the fridge at 4° C. Cell suspension volume is adjusted to total volume of 100 mL using Miltenyi buffer, mixed gently and subsequently centrifuged for 10 min at 300×g. Supernatant is discarded and cell pellet is resuspended in 12 mL of Miltenyi buffer.
Four LS columns are placed in the MACS Separator (magnet) from Miltenyi Biotec, and are prewet by rinsing with 3 mL of MACS buffer per column. Three mL of cell suspension is added onto the column (max 1*10^8 of labelled cells/column), and columns are subsequently washed 3 times with 3 mL of Miltenyi buffer.
The columns are removed from the magnets, and 5 mL of Miltenyi buffer are added to the column to flush out the CD14+ fraction by pushing the plunger into the column. The flushed fractions are collected in a fresh 50 mL Falcon and volume is adjusted to 30 mL using Miltenyi buffer, cells are centrifuged for 10 min at 300×g. The obtained cell pellet is resuspended in 10 mL RPMI w/o FBS, and cell density is determined using a hematologic analyser (Sysmex XS-500i).
A compound dilution plate is made in 100% DMSO by 3-fold dilution of 10 mM stock solution. An intermediate dilution plate (10× final concentration) is made by diluting the compound dilution plate 50-fold in RPMI medium.
10 μL of the 10× final concentration compound is added to the cells and incubated for 1 h at 37° C. before addition of trigger. No trigger conditions/trigger conditions are spiked with equal final DMSO concentrations of 0.2% DMSO. 10 μL of 10×LPS (final conc. 200 ng/mL) solution are added to all wells except for the ‘no trigger wells’ where 10 μL medium is added. Supernatant is collected after 4 h of LPS triggering.
The plate is then washed once with PBST (PBS+0.05% Tween20) and once with PBS followed by the addition of 100 μL of blocking buffer (1% Bovine Serum Albumin (BSA)-5% Sucrose) and plates are sealed and incubated for at least 4 h at RT. After washing the plate once with PBST and once with PBS, […]. Plates are washed twice with PBST, and once with PBS, after which 35 μL of the detection antibody is added (final concentration 0.25 μg/mL diluted in dilution buffer) and plates are incubated for at least 2 h at RT. Plates are washed twice with PBST, and once with PBS, whereafter 35 μL of Strep-HRP conjugate (0.5 μg/mL final concentration diluted in dilution buffer) is added. Plates are incubated in the dark, at RT for at least 45 min but no longer than 1 h. Plates are washed twice with PBST, and once with PBS. Thereafter, 50 μL of luminol substrate is added to each well (prepared according to manufacturer's instructions), and incubated for 5 min at RT protected from light.
To measure the inhibition of LPS induced TNFα, percentage inhibition (PIN) values are calculated for all concentrations tested, compared to controls.

T1 sequence (Q9H0K1 whole entry): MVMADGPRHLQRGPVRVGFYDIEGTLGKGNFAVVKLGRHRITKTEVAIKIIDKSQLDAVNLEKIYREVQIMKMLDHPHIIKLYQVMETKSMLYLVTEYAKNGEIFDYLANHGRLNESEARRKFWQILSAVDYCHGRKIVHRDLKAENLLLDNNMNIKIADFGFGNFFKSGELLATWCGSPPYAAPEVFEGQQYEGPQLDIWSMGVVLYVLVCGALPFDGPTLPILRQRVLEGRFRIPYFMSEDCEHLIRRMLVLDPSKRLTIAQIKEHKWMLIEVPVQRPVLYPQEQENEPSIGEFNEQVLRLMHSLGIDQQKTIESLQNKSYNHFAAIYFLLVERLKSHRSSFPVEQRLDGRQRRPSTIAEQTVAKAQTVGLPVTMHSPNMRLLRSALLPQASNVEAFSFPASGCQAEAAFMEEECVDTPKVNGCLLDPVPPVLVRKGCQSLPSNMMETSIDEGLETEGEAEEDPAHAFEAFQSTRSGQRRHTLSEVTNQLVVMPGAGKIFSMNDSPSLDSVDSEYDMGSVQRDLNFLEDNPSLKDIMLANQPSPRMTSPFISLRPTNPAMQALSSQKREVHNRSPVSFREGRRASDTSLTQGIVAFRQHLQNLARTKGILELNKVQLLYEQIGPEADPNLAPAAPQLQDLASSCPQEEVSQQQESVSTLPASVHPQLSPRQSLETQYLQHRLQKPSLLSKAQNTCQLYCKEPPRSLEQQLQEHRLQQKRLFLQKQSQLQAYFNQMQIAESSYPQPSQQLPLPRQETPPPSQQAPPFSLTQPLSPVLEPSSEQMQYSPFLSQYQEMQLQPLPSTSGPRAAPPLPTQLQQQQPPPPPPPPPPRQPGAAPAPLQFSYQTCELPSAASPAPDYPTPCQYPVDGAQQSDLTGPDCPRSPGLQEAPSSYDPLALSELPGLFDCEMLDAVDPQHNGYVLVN

SMILES: COc1cc(-c2cnc3cc(C4(C#N)CN(C)C4)ccn23)cc(OC(F)F)c1C(=O)NC1CC1 [Cpd 121, 4-[7-(3-cyano-1-methyl-azetidin-3-yl)imidazo[1,2-a]pyridin-3-yl]-N-cyclopropyl-2-(difluoromethoxy)-6-methoxy-benzamide]
- IC50 (SIK2): > 500 nM
- IC50 (SIK3): 10 to 100 nM
- IC50 (SIK1): > 500 nM
- EC50 [1]: 1000 to 5000 nM

SMILES: COc1cc(-c2cnn3cc(C4(C#N)CCC4)ccc23)cc(OC(F)F)c1C(=O)N[C@@H]1C[C@@H]1F [Cpd 250, 4-[6-(1-cyanocyclobutyl)pyrazolo[1,5-a]pyridin-3-yl]-2-(difluoromethoxy)-N-[(1R,2S)-2-fluorocyclopropyl]-6-methoxy-benzamide]
- IC50 (SIK2): 100 to 500 nM
- IC50 (SIK3): 0.01 to 10 nM
- IC50 (SIK1): > 500 nM
- EC50 [1]: 100 to 1000 nM

SMILES: COc1cc(-c2cnc3cc(C(C)(O)Cn4cccn4)ccn23)cc(OC(F)F)c1C(=O)NC1CC1 (centres unmarked) [Cpd 192, N-cyclopropyl-2-(difluoromethoxy)-4-[7-(1-hydroxy-1-methyl-2-pyrazol-1-yl-ethyl)imidazo[1,2-a]pyridin-3-yl]-6-methoxy-benzamide]
- IC50 (SIK2): > 500 nM
- IC50 (SIK3): 10 to 100 nM
- IC50 (SIK1): > 500 nM
- EC50 [1]: 100 to 1000 nM

SMILES: COc1cc(-c2cnc3cc(C4CCCN4)ccn23)cc(OC(F)F)c1C(=O)NC1CC1 (centres unmarked) [Cpd 188, N-cyclopropyl-2-(difluoromethoxy)-6-methoxy-4-(7-pyrrolidin-2-ylimidazo[1,2-a]pyridin-3-yl)benzamide]
- IC50 (SIK2): 100 to 500 nM
- IC50 (SIK3): 10 to 100 nM
- IC50 (SIK1): > 500 nM
- EC50 [1]: 100 to 1000 nM

SMILES: COc1cc(-c2cnc3cc(C4CN(C(C)=O)C4)c(F)cn23)cc(OC(F)F)c1C(=O)NC1CC1 [Cpd 169, 4-[7-(1-acetylazetidin-3-yl)-6-fluoro-imidazo[1,2-a]pyridin-3-yl]-N-cyclopropyl-2-(difluoromethoxy)-6-methoxy-benzamide]
- IC50 (SIK2): 100 to 500 nM
- IC50 (SIK3): 10 to 100 nM
- IC50 (SIK1): > 500 nM
- EC50 [1]: 1000 to 5000 nM

SMILES: COc1cc(-c2cnc3cc(C(C)(C)C(C)O)ccn23)cc(OC)c1C(=O)NCC(F)(F)F (centres unmarked) [Cpd 62, 4-[7-(2-hydroxy-1,1-dimethyl-propyl)imidazo[1,2-a]pyridin-3-yl]-2,6-dimethoxy-N-(2,2,2-trifluoroethyl)benzamide]
- IC50 (SIK2): > 500 nM
- IC50 (SIK3): 10 to 100 nM
- IC50 (SIK1): > 500 nM
- EC50 [1]: 1000 to 5000 nM

SMILES: COc1cc(-c2cnc3cc(C(C)(C)C#N)c(OCCO)cn23)cc(OC(F)F)c1C(=O)NC1CC1 [Cpd 221, 4-[7-(1-cyano-1-methyl-ethyl)-6-(2-hydroxyethoxy)imidazo[1,2-a]pyridin-3-yl]-N-cyclopropyl-2-(difluoromethoxy)-6-methoxy-benzamide]
- IC50 (SIK2): > 500 nM
- IC50 (SIK3): 10 to 100 nM
- IC50 (SIK1): > 500 nM
- EC50 [1]: 100 to 1000 nM

SMILES: CNC(=O)COCC(C)(C)c1ccc2c(-c3cc(OC)c(C(=O)N[C@@H]4C[C@@H]4F)c(OC(F)F)c3)cnn2c1 [Cpd 253, 2-(difluoromethoxy)-4-[6-[1,1-dimethyl-2-[2-(methylamino)-2-oxo-ethoxy]ethyl]pyrazolo[1,5-a]pyridin-3-yl]-N-[(1R,2S)-2-fluorocyclopropyl]-6-methoxy-benzamide]
- IC50 (SIK2): > 500 nM
- IC50 (SIK3): 0.01 to 10 nM
- IC50 (SIK1): > 500 nM
- EC50 [1]: 100 to 1000 nM

SMILES: CCN(C)C(=O)c1c(OC)cc(-c2cnc3cc(C(C)(C)C#N)ccn23)cc1OC(F)F [Cpd 40, 4-[7-(1-cyano-1-methyl-ethyl)imidazo[1,2-a]pyridin-3-yl]-2-(difluoromethoxy)-N-ethyl-6-methoxy-N-methyl-benzamide]
- IC50 (SIK2): > 500 nM
- IC50 (SIK3): > 500 nM
- IC50 (SIK1): > 500 nM

SMILES: COc1cc(-c2cnc3cc(C(C)N(C)CCO)ccn23)cc(OC(F)F)c1C(=O)NC1CC1 (centres unmarked) [Cpd 154, N-cyclopropyl-2-(difluoromethoxy)-4-[7-[1-[2-hydroxyethyl(methyl)amino]ethyl]imidazo[1,2-a]pyridin-3-yl]-6-methoxy-benzamide]
- IC50 (SIK2): > 500 nM
- IC50 (SIK3): 10 to 100 nM
- IC50 (SIK1): > 500 nM

SMILES: COc1cc(-c2cnc3cc(C4(C(=O)N5CC(O)C5)CC4)ccn23)cc(OC(F)F)c1C(=O)NC1CC1 [Cpd 144, N-cyclopropyl-2-(difluoromethoxy)-4-[7-[1-(3-hydroxyazetidine-1-carbonyl)cyclopropyl]imidazo[1,2-a]pyridin-3-yl]-6-methoxy-benzamide]
- IC50 (SIK2): > 500 nM
- IC50 (SIK3): 10 to 100 nM
- IC50 (SIK1): > 500 nM

SMILES: COc1cc(-c2cnc3cc(C4CCN4C)ccn23)cc(OC(F)F)c1C(=O)NC1CC1 (centres unmarked) [Cpd 204, N-cyclopropyl-2-(difluoromethoxy)-6-methoxy-4-[7-(1-methylazetidin-2-yl)imidazo[1,2-a]pyridin-3-yl]benzamide]
- IC50 (SIK2): > 500 nM
- IC50 (SIK3): 10 to 100 nM
- IC50 (SIK1): > 500 nM

SMILES: COc1cc(-c2cnc3cc(C(C)N4CC(O)C4)ccn23)cc(OC(F)F)c1C(=O)NC1CC1 (centres unmarked) [Cpd 155, N-cyclopropyl-2-(difluoromethoxy)-4-[7-[1-(3-hydroxyazetidin-1-yl)ethyl]imidazo[1,2-a]pyridin-3-yl]-6-methoxy-benzamide]
- IC50 (SIK2): > 500 nM
- IC50 (SIK3): 10 to 100 nM
- IC50 (SIK1): > 500 nM

SMILES: COc1cc(-c2cnc3cc(C(C)(C)C#N)ccn23)cc(OC(F)F)c1C(=O)NCC1COC1 [Cpd 102, 4-[7-(1-cyano-1-methyl-ethyl)imidazo[1,2-a]pyridin-3-yl]-2-(difluoromethoxy)-6-methoxy-N-(oxetan-3-ylmethyl)benzamide]
- IC50 (SIK2): > 500 nM
- IC50 (SIK3): 10 to 100 nM
- IC50 (SIK1): > 500 nM

SMILES: CCC(O)C(C)(C)c1ccn2c(-c3cc(OC)c(C(=O)NC4CC4)c(OC(F)F)c3)cnc2c1 (centres unmarked) [Cpd 201, N-cyclopropyl-2-(difluoromethoxy)-4-[7-(2-hydroxy-1,1-dimethyl-butyl)imidazo[1,2-a]pyridin-3-yl]-6-methoxy-benzamide]
- IC50 (SIK2): > 500 nM
- IC50 (SIK3): 10 to 100 nM
- IC50 (SIK1): > 500 nM

SMILES: COc1cc(-c2cnc3cc(C(C)(C)C#N)ccn23)cc(OC(F)F)c1C(=O)NCCN1CCOCC1 [Cpd 42, 4-[7-(1-cyano-1-methyl-ethyl)imidazo[1,2-a]pyridin-3-yl]-2-(difluoromethoxy)-6-methoxy-N-(2-morpholinoethyl)benzamide]
- IC50 (SIK2): > 500 nM
- IC50 (SIK3): 100 to 500 nM
- IC50 (SIK1): > 500 nM

SMILES: COc1cc(-c2cnc3cc(C(C)O)ccn23)cc(OC)c1C(=O)NCC(F)(F)F (centres unmarked) [Cpd 54, 4-[7-(1-hydroxyethyl)imidazo[1,2-a]pyridin-3-yl]-2,6-dimethoxy-N-(2,2,2-trifluoroethyl)benzamide]
- IC50 (SIK2): > 500 nM
- IC50 (SIK3): 10 to 100 nM
- IC50 (SIK1): > 500 nM

SMILES: COc1cc(-c2cnc3cc(C(C)(C)C#N)ccn23)cc(OC(F)F)c1C(=O)NC(CO)C1CC1 (centres unmarked) [Cpd 87, 4-[7-(1-cyano-1-methyl-ethyl)imidazo[1,2-a]pyridin-3-yl]-N-(1-cyclopropyl-2-hydroxy-ethyl)-2-(difluoromethoxy)-6-methoxy-benzamide]
- IC50 (SIK2): > 500 nM
- IC50 (SIK3): > 500 nM
- IC50 (SIK1): > 500 nM

SMILES: COc1cc(-c2cnc3cc(C(C)NC(C)C)ccn23)cc(OC(F)F)c1C(=O)NC1CC1 (centres unmarked) [Cpd 149, N-cyclopropyl-2-(difluoromethoxy)-4-[7-[1-(isopropylamino)ethyl]imidazo[1,2-a]pyridin-3-yl]-6-methoxy-benzamide]
- IC50 (SIK2): > 500 nM
- IC50 (SIK3): 10 to 100 nM
- IC50 (SIK1): > 500 nM
